From PubChem BioAssay (NCI)
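In this assay, cells in 96-well plates receive the compound at five concentrations for 48 hours. Endpoints are linearly interpolated between the surrounding concentrations. TGI denotes the concentration required for complete inhibition of growth.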

Columns and labels:
Assay in all cases: NCI tumour cell line growth inhibition, 48 h
SF-295 CNS = system: SF-295 CNS
SK-MEL-2 melanoma = system: SK-MEL-2 melanoma
SNB-75 CNS = system: SNB-75 CNS
SK-OV-3 ovarian = system: SK-OV-3 ovarian
KM12 colon = system: KM12 colon
OVCAR-3 ovarian = system: OVCAR-3 ovarian
HCT-15 colon = system: HCT-15 colon
M14 melanoma = system: M14 melanoma
OVCAR-8 ovarian = system: OVCAR-8 ovarian
MOLT-4 leukemia = system: MOLT-4 leukemia
BT-549 breast = system: BT-549 breast
COLO 205 colon = system: COLO 205 colon
SK-MEL-5 melanoma = system: SK-MEL-5 melanoma
OVCAR-4 ovarian = system: OVCAR-4 ovarian
DU-145 prostate = system: DU-145 prostate
RPMI-8226 leukemia = system: RPMI-8226 leukemia
UACC-62 melanoma = system: UACC-62 melanoma
K-562 leukemia = system: K-562 leukemia

Row | SMILES | TGI (SF-295 CNS) | TGI (SK-MEL-2 melanoma) | TGI (SNB-75 CNS) | TGI (SK-OV-3 ovarian) | TGI (KM12 colon) | TGI (OVCAR-3 ovarian) | TGI (HCT-15 colon) | TGI (M14 melanoma) | TGI (OVCAR-8 ovarian) | TGI (MOLT-4 leukemia) | TGI (BT-549 breast) | TGI (COLO 205 colon) | TGI (SK-MEL-5 melanoma) | TGI (OVCAR-4 ovarian) | TGI (DU-145 prostate) | TGI (RPMI-8226 leukemia) | TGI (UACC-62 melanoma) | TGI (K-562 leukemia)
1 | CC(C)OCC1CC(CC(=O)Nc2nncs2)C(=O)O1 (stereo not given) | > 100 µM | > 100 µM | > 100 µM | > 100 µM | > 100 µM | > 100 µM | > 100 µM | > 100 µM | > 100 µM | > 100 µM | > 100 µM | > 100 µM | > 100 µM | > 100 µM | > 100 µM | > 100 µM | > 100 µM | > 100 µM
2 | Cn1c2ccc3cc2c(=S)c2cc(ccc21)OCCOCCOCCOCCOCCO3 | > 10 µM | > 10 µM | > 10 µM | > 10 µM | > 10 µM | > 10 µM | > 10 µM | > 10 µM | > 10 µM | > 10 µM | > 10 µM | > 10 µM | > 10 µM | > 10 µM | > 10 µM | > 10 µM | > 10 µM | > 10 µM
3 | C[C@H](NC(=O)c1ccc(CNC(=O)/C=C/c2cccc(Oc3ccccc3)c2)cc1)c1ccccc1 | > 100 µM | > 100 µM | 44.2 µM | > 100 µM | > 100 µM | > 100 µM | > 100 µM | > 100 µM | > 100 µM | > 100 µM | > 100 µM | > 100 µM | > 100 µM | > 100 µM | > 100 µM | > 100 µM | > 100 µM | > 100 µM
4 | Cc1cc(N(CCC#N)CCC#N)ccc1/C(N=Nc1ccc(C(=O)O)cc1)=N\NC(=O)c1cc(Cl)ccc1O | 34.7 µM | > 100 µM | 53.5 µM | 64.5 µM | > 100 µM | > 100 µM | > 100 µM | > 100 µM | 93.1 µM | > 100 µM | > 100 µM | > 100 µM | > 100 µM | 97 µM | > 100 µM | > 100 µM | > 100 µM | > 100 µM
5 | C=CCC1(OC(C)=O)C2OC(=O)C1(O)OCC2O (stereo not given) | > 100 µM | > 100 µM | 98.9 µM | > 100 µM | > 100 µM | > 100 µM | > 100 µM | > 100 µM | > 100 µM | > 100 µM | > 100 µM | > 100 µM | > 100 µM | > 100 µM | > 100 µM | > 100 µM | > 100 µM | > 100 µM
6 | CCCCc1ccc(Nc2nc(SC)c3[nH]cnc3n2)cc1 | > 100 µM | > 100 µM | > 100 µM | > 100 µM | > 100 µM | > 93.5 µM | > 100 µM | > 100 µM | > 100 µM | > 100 µM | > 100 µM | > 100 µM | > 100 µM | > 100 µM | > 100 µM | > 100 µM | > 100 µM | > 31.3 µM
7 | Cc1nn(C(=O)c2ccc(Cl)cc2)c2c1C(c1ccccc1[N+](=O)[O-])SC(N)=N2 (stereo not given) | > 10 µM | > 10 µM | > 10 µM | > 10 µM | > 10 µM | > 10 µM | > 10 µM | > 10 µM | > 10 µM | > 10 µM | > 10 µM | > 10 µM | > 10 µM | > 10 µM | > 10 µM | > 10 µM | > 10 µM | > 10 µM
8 | COC(=O)CNS(=O)(=O)c1ccc(-c2c3nc(c(-c4ccc(S(=O)(=O)NCC(=O)OC)cc4)c4ccc([nH]4)c(-c4ccc(S(=O)(=O)NCC(=O)OC)cc4)c4nc(c(-c5ccc(S(=O)(=O)NCC(=O)OC)cc5)c5ccc2[nH]5)C=C4)C=C3)cc1 | > 100 µM | > 100 µM | > 100 µM | > 100 µM | > 100 µM | > 100 µM | > 100 µM | 41.9 µM | > 100 µM | > 100 µM | > 100 µM | > 100 µM | > 100 µM | > 100 µM | > 100 µM | > 100 µM | > 100 µM | > 100 µM
9 | CC(C)=CCC/C(=C/CC/C(=C\CCc1ccoc1)C(=O)O)C(=O)O | > 100 µM | > 100 µM | > 100 µM | > 100 µM | > 100 µM | > 100 µM | > 100 µM | > 100 µM | > 100 µM | > 100 µM | > 100 µM | > 100 µM | > 100 µM | > 100 µM | > 100 µM | > 100 µM | > 100 µM | > 100 µM
10 | Clc1cc(Cl)cc(C=NC23CC4CC(CC(C4)C2)C3)c1 | > 10 µM | > 10 µM | > 10 µM | > 10 µM | > 10 µM | > 10 µM | > 10 µM | > 10 µM | > 10 µM | > 10 µM | > 10 µM | > 10 µM | > 10 µM | > 10 µM | > 10 µM | > 10 µM | > 10 µM | > 10 µM
